One series concerns the target T1, CYP2C9 (Homo sapiens, UniProt P11712).
T1 construct: Pooled human microsomes and selective CYP probe substrates were used; from tissue; host or cells: pooled human liver microsomes
Kind of series: Time-dependent inhibition of CYP2C9 in human liver microsomes. Format: in vitro ADME. Particulars: for (% Activity NADPH T0)/(% Activity NADPH T30): fold change; for activity at 30 min, 25 µM / activity at 0 min, 25 µM / activity at 30 min, 50 µM / activity at 0 min, 50 µM: pooled human liver microsomes, human liver microsomes; for activity at 30 min, 25 µM / activity at 30 min, 50 µM: after 30 minutes incubation, read-out: % Activity NADPH T30; for activity at 0 min, 25 µM / activity at 0 min, 50 µM: time zero, read-out: % Activity NADPH T0. How it is done: (§1) An assessment of the time-dependent Inhibitory Potential of the test compounds against Principal Human Cytochrome P450 Isozymes using Human Liver Microsomes was also carried out using standard methods (Grimm et al, Drug Metab. Dispos., July; 37(7):1355-70. doi: 10.1124/dmd.109.026716, 2009). Pooled human microsomes and selective CYP probe substrates were used for in vitro assessment of test compounds at 25 and 50 μM as time-dependent inhibitors of […] human hepatic cytochrome P450 isozymes (CYP1A2, 2B6, 2C9, 2C19, 2D6, and 3A4). LC-MS/MS was used to quantify metabolite formation. The inhibition of each P450 enzyme in human liver microsomes was measured as the percentage decrease in the activity of marker metabolite formation as measured by LC-MS/MS compared to non-inhibited controls (=100% activity) at time zero and after 30 minutes incubation. The occurrence of any time dependent inhibition was then expressed as the fold change in enzyme activity at time zero relative to the activity after 30 minutes incubation.

Series [1] can be described thus: Mouse single dose pharmacokinetics. Format: in vivo, C57BL/6 mice. Particulars: male, C57BL/6, plasma, 0.5 mg/kg, IV; for Vd: read-out: Vss; for half-life: read-out: t½ (converted). How it is done:
Male C57BL/6 mice (18-25 g, 6-8 weeks old) were obtained from Zhejiang Vital River Laboratory Animal Technology Co., Ltd. All animals for IV administration had free access to food and water. The IV dosing was performed through tail vein. The IV dose solution for the Test Articles was prepared in 10% DMA/20% PG/70% HPβCD solution (40% w/v aqueous HPβCD) at a concentration of 0.1 mg/mL. The oral dosing suspension was prepared by suspending Test Article in 0.5% HPMC/0.1% Tween 80 in water at a concentration 0.2 mg/mL. Concentrations of IV and PO doses were measured at the end of the study. Pharmacokinetic (PK) parameters were calculated using the nominal dose values if the measured values were within 20% of the nominal values. A group of 15 mice received the IV dose where the volume was 5 mL/kg. Another group of 15 mice received by oral gavage of Test Article at 1 mg/kg. The oral dose volume was 5 mL/kg. Sparse blood samples were collected from groups of three mice via retro-orbital bleeding, placed into a K2EDTA microtainer tube and maintained on ice until centrifugation to obtain plasma. Each designated group of mice were bled at two-time points. The time points were predose (PO only), 5 (IV only), 15, 30 minutes, 1, 2, 4, 6, 8 and 24 hours postdose. Blood samples were centrifuged and the collected plasma was stored at −80° C. until analysis. Plasma samples were analyzed for Test Article concentrations using an LC/MS/MS method. Briefly, a 50 μL aliquot of each plasma sample was mixed with 100 μL of acetonitrile that contained an internal standard (IS). The mixture was vortexed and centrifuged. Ten (10) μL of the resulting solution was injected onto a reverse-phase C18 column and the resultant peaks detected on a LC/MS/MS equipped with a turbo ionspray ionization source. Sample concentrations below the limit of quantification (BLQ) were treated as zero for PK calculations. Composite PK parameters were estimated from a maximum of two sampling points per mouse and three mice per sampling point and the sparse data option of WinNonlin was used for noncompartmental analysis of the concentration-time data (Phoenix WinNonLin software, version 64; Pharsight, Mountain View, CA). The elimination rate constant (k) was calculated as the absolute value of the slope of the linear regression of logarithm of the concentration versus time for the last three data points of the concentration-time profiles. Apparent elimination half-life (t1/2) values were calculated as ln(2)/k. Area under the concentration-time curve (AUC) values were estimated using linear trapezoidal method. AUCt values were calculated from the dosing time to the last measurable concentration. AUC∞ values were calculated as the sum of the corresponding AUCt and the ratio of the last detectable concentration divided by k. Plasma clearance (CL) was calculated from Dose/AUC∞. Mean resident time (MRT) was estimated by moment analysis. Volume of distribution at steady state (Vss) was calculated from MRT∞×CL. Maximum concentration (Cmax) and time to reach Cmax (tmax) were recorded as observed. Bioavailability was calculated dAUC∞,po/dAUC∞,iv×100% where dAUC was the dose normalized AUC value. Data for compounds tested are provided in Table B. Compounds tested were prepared in accordance with the synthetic procedures described herein.

The target of another series is T2, CYP2B6 (Homo sapiens, UniProt P20813).
T2 construct: Pooled human microsomes and selective CYP probe substrates were used; from tissue; host or cells: pooled human liver microsomes
T2 sequence (P20813 1-491): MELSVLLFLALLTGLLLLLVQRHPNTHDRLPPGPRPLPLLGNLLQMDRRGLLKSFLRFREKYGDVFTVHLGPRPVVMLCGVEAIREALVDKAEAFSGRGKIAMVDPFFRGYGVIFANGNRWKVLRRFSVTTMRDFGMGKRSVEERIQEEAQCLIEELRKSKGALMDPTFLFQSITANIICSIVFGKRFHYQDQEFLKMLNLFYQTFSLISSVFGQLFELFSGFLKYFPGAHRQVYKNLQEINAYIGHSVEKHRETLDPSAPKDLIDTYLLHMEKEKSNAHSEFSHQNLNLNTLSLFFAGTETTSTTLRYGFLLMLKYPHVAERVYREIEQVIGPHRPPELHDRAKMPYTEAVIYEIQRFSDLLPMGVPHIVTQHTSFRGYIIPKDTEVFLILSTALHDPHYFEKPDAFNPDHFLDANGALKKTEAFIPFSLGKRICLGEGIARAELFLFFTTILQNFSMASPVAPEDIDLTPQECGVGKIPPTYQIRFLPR
Kind of series: Time-dependent inhibition of CYP2B6 in human liver microsomes. The format is in vitro ADME. Conditions: for (% Activity NADPH T0)/(% Activity NADPH T30): fold change; for activity at 30 min, 25 µM / activity at 0 min, 25 µM / activity at 30 min, 50 µM / activity at 0 min, 50 µM: pooled human liver microsomes, human liver microsomes; for activity at 30 min, 25 µM / activity at 30 min, 50 µM: after 30 minutes incubation, read-out: % Activity NADPH T30; for activity at 0 min, 25 µM / activity at 0 min, 50 µM: time zero, read-out: % Activity NADPH T0. The protocol:
as §1
In general terms: Liver microsomes are a subcellular fraction often used to study metabolism.

A further series deals with T3, CYP3A4 (Homo sapiens, UniProt P08684).
T3 construct: Pooled human microsomes and selective CYP probe substrates were used; from tissue; host or cells: pooled human liver microsomes
T3 sequence (P08684 whole entry): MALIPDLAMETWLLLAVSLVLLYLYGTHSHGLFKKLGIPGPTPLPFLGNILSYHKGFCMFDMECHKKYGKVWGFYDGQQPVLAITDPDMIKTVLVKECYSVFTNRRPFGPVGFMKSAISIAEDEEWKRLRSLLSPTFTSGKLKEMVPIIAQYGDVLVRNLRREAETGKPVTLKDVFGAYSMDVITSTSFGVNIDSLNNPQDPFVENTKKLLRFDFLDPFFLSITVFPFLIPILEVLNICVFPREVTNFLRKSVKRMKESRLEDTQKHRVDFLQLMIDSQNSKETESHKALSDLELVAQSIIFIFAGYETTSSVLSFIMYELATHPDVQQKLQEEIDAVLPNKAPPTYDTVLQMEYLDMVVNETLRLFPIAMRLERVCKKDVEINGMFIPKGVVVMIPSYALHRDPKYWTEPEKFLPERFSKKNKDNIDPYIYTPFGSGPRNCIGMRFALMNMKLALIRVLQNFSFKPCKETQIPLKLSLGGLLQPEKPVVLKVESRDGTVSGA
Briefly: Time-dependent inhibition of CYP3A4 in human liver microsomes (testosterone and midazolam probes). The format is in vitro ADME. Particulars: for (% Activity NADPH T0)/(% Activity NADPH T30): fold change; for activity at 30 min, 25 µM / activity at 30 min, 50 µM: human, after 30 minutes incubation, read-out: % Activity NADPH T30; for activity at 30 min, 25 µM / activity at 30 min, 50 µM / activity at 0 min, 25 µM / activity at 0 min, 50 µM: pooled human liver microsomes; for activity at 0 min, 25 µM / activity at 0 min, 50 µM: human liver microsomes, time zero, read-out: % Activity NADPH T0. The protocol:
as §1

The mark [2] stands for this setting: CYP3A4-M (midazolam probe substrate), 25 μM.
The mark [3] stands for this setting: CYP3A4-M (midazolam probe substrate), 50 μM.
The mark [4] stands for this setting: CYP3A4-T (testosterone probe substrate), 25 μM.
[5] abbreviates: CYP3A4-T (testosterone probe substrate), 50 μM.

Read-outs that look alike come from different tables or passages of the source.

T1 sequence (P11712 whole entry): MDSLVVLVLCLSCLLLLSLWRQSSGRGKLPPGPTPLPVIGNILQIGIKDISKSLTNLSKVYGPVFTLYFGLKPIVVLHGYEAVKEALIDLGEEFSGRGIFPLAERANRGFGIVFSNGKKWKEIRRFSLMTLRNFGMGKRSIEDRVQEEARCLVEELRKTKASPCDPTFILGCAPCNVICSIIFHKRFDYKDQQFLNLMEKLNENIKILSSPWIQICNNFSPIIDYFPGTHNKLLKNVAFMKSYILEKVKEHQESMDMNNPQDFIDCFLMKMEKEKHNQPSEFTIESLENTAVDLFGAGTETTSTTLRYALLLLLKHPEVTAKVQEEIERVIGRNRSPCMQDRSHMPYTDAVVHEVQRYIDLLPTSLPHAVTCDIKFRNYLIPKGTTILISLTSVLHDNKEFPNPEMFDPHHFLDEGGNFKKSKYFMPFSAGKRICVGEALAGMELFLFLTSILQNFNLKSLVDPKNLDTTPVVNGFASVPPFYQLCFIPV

Usually clearance stands for a measure of how efficiently the substance is removed, as volume per time. On to `CC(C)N1CC(=O)N(Cc2ccc(C(F)(F)F)cc2)C2(CN(c3cccnn3)C2)C1=O` [Compound 13, 8-isopropyl-2-(pyridazin-3-yl)-5-(4-(trifluoromethyl)benzyl)-2,5,8-triazaspiro[3.5]nonane-6,9-dione], for which the “(% Activity NADPH T0)/(% Activity NADPH T30)” value on CYP2C9 (CYP2C9, 25 μM) is given as 0.9; at CYP2C9 (CYP2C9, 50 μM), 1.0; at CYP2B6 (CYP2B6, 25 μM) it was 0.9; on CYP2B6 (CYP2B6, 50 μM), 1.1; on CYP3A4 (setting [2]), 1.0; at CYP3A4 (setting [3]) it was 0.7. The entries for the “(% Activity NADPH T0)/(% Activity NADPH T30)” value at CYP3A4 (setting [4]) and on CYP3A4 (setting [5]) were 1.0 and 0.9, respectively. In addition, the activity at 30 min, 25 µM was found to be 114% on CYP2C9 (CYP2C9, 25 μM); 116% at CYP2B6 (CYP2B6, 25 μM); 88% at CYP3A4 (setting [2]); 77% at CYP3A4 (setting [4]). The activity at 0 min, 25 µM stood at 107% on CYP2C9 (CYP2C9, 25 μM); 102% on CYP2B6 (CYP2B6, 25 μM); 87% at CYP3A4 (setting [2]); 74% at CYP3A4 (setting [4]). In addition, the activity at 30 min, 50 µM is 109% on CYP2C9 (CYP2C9, 50 μM); 81% at CYP2B6 (CYP2B6, 50 μM); 97% on CYP3A4 (setting [3]); 65% at CYP3A4 (setting [5]). In addition, the activity at 0 min, 50 µM amounted to 111% on CYP2C9 (CYP2C9, 50 μM); 90% at CYP2B6 (CYP2B6, 50 μM); 72% on CYP3A4 (setting [3]); 56% on CYP3A4 (setting [5]). In series [1], the clearance stood at 101 mL/min/kg. Moreover, the Vd in series [1] was 2.25 L/kg. Also, in series [1], the half-life is 27.6 min.
As for `C[C@H]1CC[C@H](N2CC(=O)N(Cc3ccc(Cl)cc3)C3(CN(C(N)=O)C3)C2=O)CC1` [Compound 18, 5-(4-chlorobenzyl)-8-((1r,4r)-4-methylcyclohexyl)-6,9-dioxo-2,5,8-triazaspiro[3.5]nonane-2-carboxamide], the “(% Activity NADPH T0)/(% Activity NADPH T30)” value came to 0.9 on CYP2C9 (CYP2C9, 25 μM); 1.2 at CYP2C9 (CYP2C9, 50 μM); 0.8 at CYP2B6 (CYP2B6, 25 μM); 0.9 on CYP2B6 (CYP2B6, 50 μM); 1.8 on CYP3A4 (setting [2]); 1.2 at CYP3A4 (setting [3]). Besides, the “(% Activity NADPH T0)/(% Activity NADPH T30)” value was determined as 1.2 on CYP3A4 (setting [4]) and 1.1 at CYP3A4 (setting [5]). Further, the activity at 30 min, 25 µM on CYP2C9 (CYP2C9, 25 μM) is 47%; at CYP2B6 (CYP2B6, 25 μM) it was 103%; on CYP3A4 (setting [2]), 71%; on CYP3A4 (setting [4]), 85%. For the same molecule, the activity at 0 min, 25 µM at CYP2C9 (CYP2C9, 25 μM) worked out at 44%; on CYP2B6 (CYP2B6, 25 μM), 80%; on CYP3A4 (setting [2]), 125%; on CYP3A4 (setting [4]), 100%. For the same molecule, the activity at 30 min, 50 µM on CYP2C9 (CYP2C9, 50 μM) stood at 27%; on CYP2B6 (CYP2B6, 50 μM), 83%; at CYP3A4 (setting [3]) it was 102%; at CYP3A4 (setting [5]) it was 75%. Moreover, the activity at 0 min, 50 µM on CYP2C9 (CYP2C9, 50 μM) was found to be 32%; on CYP2B6 (CYP2B6, 50 μM) it was 76%; on CYP3A4 (setting [3]) it was 126%; on CYP3A4 (setting [5]) it was 85%. This molecule had a clearance in series [1] of 21 mL/min/kg. The Vd in series [1] was found to be 2.95 L/kg. Also, the half-life in series [1] is 70.8 min.
As to `C[C@H]1CC[C@H](N2CC(=O)N(Cc3ccc(F)c(F)c3)C3(CN(C=O)C3)C2=O)CC1` [Compound 4, 5-(3,4-difluorobenzyl)-8-((1r,4r)-4-methylcyclohexyl)-6,9-dioxo-2,5,8-triazaspiro[3.5]nonane-2-carbaldehyde], the “(% Activity NADPH T0)/(% Activity NADPH T30)” value at CYP2C9 (CYP2C9, 25 μM) is recorded as 1.0; on CYP2C9 (CYP2C9, 50 μM) it was 0.9; at CYP2B6 (CYP2B6, 25 μM), 1.1; at CYP2B6 (CYP2B6, 50 μM) it was 1.0; on CYP3A4 (setting [2]) it was 0.8; at CYP3A4 (setting [3]), 0.7. Also, the “(% Activity NADPH T0)/(% Activity NADPH T30)” value was 0.9 at CYP3A4 (setting [4]) and 0.8 at CYP3A4 (setting [5]).

(Values after patent US12286437B2, “Cardiac sarcomere inhibitors” (Cytokinetics, Inc., priority 2021, dated 2025).)
